Results: US7423068B2, “Control of parasitic mites of honey bees” (The United States of America as represented by the …, priority 2001, dated 2008)

Assays:
Varroa mites [1] = test: Varroa trapping device in a Varroa-infested 9-frame colony; type: in vivo, Varroa jacobsoni; details: trap coated with 20% 2-heptanone gel, between brood frames, after 48 hrs
Source text: In a second test to determine if 2-heptanone is an attractant, a Varroa trapping device was placed in a Varroa-infested 9-frame colony for 48 hrs. The device was constructed by placing a 2.54 cm^2 piece of Dewill® Varroa Mite Detector Insert coated with a 20% concentration of 2-heptanone in a gel formulation and covered with a 0.63 cm (0.25 inch) wire mesh. A wire was placed through the top of the trap so that the trap dangled between the frames in the colony. The device was placed between frames containing brood.

Varroa mite = test: Miticidal activity in 5-frame honey bee colonies (sticky board counts); type: in vivo, Varroa jacobsoni
Protocol: This set of bioassays was conducted in 5-frame colonies. We tested miticidal activity of 30% concentration 2-heptanone in an acrylic block dispenser. Four colonies were established for each of the following treatments: 2-heptanone, Apistan® (a commercially available miticide for control of Varroa), and no treatment (i.e., Controls). Before each treatment, counts were made of the number of mites that dropped on to Dewill® Varroa Mite Detector Inserts (hereinafter denoted as “sticky boards”) placed at the bottom of colonies for one week (pre-treatment counts). A new sticky board then was inserted at the bottom of each colony, and either a single acrylic block dispenser with 30% 2-heptanone made as in Example 6 (surface area=28.3 cm^2) or a single Apistan® strip was placed between the frames. The Controls comprised no treatment. The number of mites on the sticky boards was counted weekly for 3-4 weeks afterwards (treatment interval). New sticky boards were inserted at the beginning of each week. At the end of the test period, the 2-heptanone and Apistan® were removed, and a new sticky board was inserted on the bottom of the colonies. A new Apistan® strip then was placed in the colonies to kill any remaining mites (post-treatment interval). The number of mites on the sticky board was counted after the colony was exposed to the new Apistan® strip for one week. The % Reduction in the Varroa Population was estimated by summing all the mites counted on the sticky board during the 3 or 4 week treatment interval and dividing it by the total number of mites counted for the colony during both the treatment and post-treatment intervals.
When we removed the acrylic strips from the colony after three weeks, we could still detect the odor of 2-heptanone. We repeated the test with new colonies, and in this trial (Trial-2) left the 2-heptanone and Apistan® strips in the colony for 4 weeks. We then placed the post-treatment Apistan® strips in the colonies.
This test (Trial 3) was carried out in 5-frame colonies as described above except for the following changes. […]

Varroa mites [2] = test: Attractant petri dish bioassay with 20% 2-heptanone gel formulation; type: in vivo, Varroa jacobsoni; details: 40 μL of 20% 2-heptanone gel
Protocol: We conducted bioassays to deternine if 2-heptanone attracts Varroa mites. In the first bioassay, we exposed free-running adult mites to volatiles from a 20% 2-heptanone in a gel formulation. […] 40 μL of 20% 2-heptanone in a gel formulation was added to a weighing boat located in the center of the petri dish. Control dishes were set up as described above with empty weighing boats in the center. Within 24 hours 27.3% of the mites were found in the gel formulation of 2-heptanone located in the weighing boat in the center of the petri dish. No mites were found in the weighing boat in the Control dish. The bioassay was repeated using the same procedure as described above. In the second replicate, 16.7% of the mites were found in the gel formulation of 2-heptanone located in the weighing boat in the center of the petri dish and again 0% were found in the weighing boats of the Control dishes.

[3] = Release rate of 2-heptanone from acrylic blocks; type: physicochemical; details: acrylic block, 34° C.
Source text: Blocks having the following composition were made:
Polymerization was triggered with 2.9% benzoyl peroxide and 1.1% dimethylparatoluidine. Each block weighed approximately 30 grams (Diam. 60 mm, Height 10 mm). The blocks were molded in an aluminum cup.
However, it was found, because of a packaging problem, that the blocks lost some active ingredient during transportation and had only 30% 2-heptanone. To avoid any further loss of active ingredient, the unused samples were stored at all times in a refrigerator at 4° C. The value of 30% 2-heptanone was kept for further processing of the data. The rate at which 2-heptanone was released from the blocks was measured. The experimental procedure consisted in weighing the acrylic blocks left in their aluminum mold at regular intervals. The blocks were kept in an incubator set at 34° C. (temperature of the center of the brood nest in a honey bee hive). It is noteworthy that the incubator is not air tight and that the incubator glass door had to be opened to retrieve the sample to be weighed. An Isotemp Incubator from Fisher Scientific was used. The incubator has a measured volume of 71 liters. The samples were monitored for 44 days.

[4] = in words; cited from earlier work

Compound: CCCCCC(C)=O [2-Heptanone]
- Varroa mites found stuck in the gel on the trap (Varroa mites [1]): several hundred
- % Reduction in Varroa Mite Population ± S.E. (Varroa mite; Trial 1, 3 week treatment, 30% 2-heptanone acrylic block or single Apistan strip, Control 42.2 ± 7.0): 61.8 ± 8.5 a %
- % Reduction in Varroa Mite Population ± S.E. (Varroa mite; Trial 2, 4 week treatment, 30% 2-heptanone acrylic block or single Apistan strip, Control 43.6 ± 4.2): 73.6 ± 13.7 a %
- % Reduction in Varroa Mite Population ± S.E. (Varroa mite; Trial 3, controlled release strip with 60 g 2-heptanone on top bar, renewed after 3 weeks, or Apistan strip, Control 69.35 ± 4.8): 87.05 ± 4.4 a %
- % of the mites found in the gel formulation in the weighing boat (Varroa mites [2]; second replicate, Control 0%): 16.7%
- % of the mites found in the gel formulation in the weighing boat (Varroa mites [2]; within 24 hours, first bioassay, Control none): 27.3%
- % 2-Heptanone loss (initial conc. 30%) ([3]; Day 0): 0%
- Daily release in percentage ([3]; Day 0): 0 percentage
- % 2-Heptanone loss (initial conc. 30%) ([3]; Day 1): 29.13%
- Daily release in percentage ([3]; Day 1): 29.13 percentage
- % 2-Heptanone loss (initial conc. 30%) ([3]; Day 2): 38.76%
- Daily release in percentage ([3]; Day 2): 9.63 percentage
- % 2-Heptanone loss (initial conc. 30%) ([3]; Day 3): 49.04%
- Daily release in percentage ([3]; Day 3): 10.28 percentage
- % 2-Heptanone loss (initial conc. 30%) ([3]; Day 4): 55.72%
- Daily release in percentage ([3]; Day 4): 6.68 percentage
- % 2-Heptanone loss (initial conc. 30%) ([3]; Day 7): 68.85%
- Daily release in percentage ([3]; Day 7): 4.38 percentage
- % 2-Heptanone loss (initial conc. 30%) ([3]; Day 8): 71.82%
- Daily release in percentage ([3]; Day 8): 2.97 percentage
- % 2-Heptanone loss (initial conc. 30%) ([3]; Day 9): 74.7%
- Daily release in percentage ([3]; Day 9): 2.88 percentage
- % 2-Heptanone loss (initial conc. 30%) ([3]; Day 10): 76.09%
- Daily release in percentage ([3]; Day 10): 1.39 percentage
- % 2-Heptanone loss (initial conc. 30%) ([3]; Day 11): 77.88%
- Daily release in percentage ([3]; Day 11): 1.79 percentage
- % 2-Heptanone loss (initial conc. 30%) ([3]; Day 14): 82.31%
- Daily release in percentage ([3]; Day 14): 1.48 percentage
- % 2-Heptanone loss (initial conc. 30%) ([3]; Day 15): 83.43%
- Daily release in percentage ([3]; Day 15): 1.12 percentage
- % 2-Heptanone loss (initial conc. 30%) ([3]; Day 16): 84.39%
- Daily release in percentage ([3]; Day 16): 0.96 percentage
- % 2-Heptanone loss (initial conc. 30%) ([3]; Day 18): 86.24%
- Daily release in percentage ([3]; Day 18): 0.92 percentage
- % 2-Heptanone loss (initial conc. 30%) ([3]; Day 21): 88.43%
- Daily release in percentage ([3]; Day 21): 0.73 percentage
- % 2-Heptanone loss (initial conc. 30%) ([3]; Day 24): 89.98%
- Daily release in percentage ([3]; Day 24): 0.52 percentage
- % 2-Heptanone loss (initial conc. 30%) ([3]; Day 30): 92.36%
- Daily release in percentage ([3]; Day 30): 0.4 percentage
- % 2-Heptanone loss (initial conc. 30%) ([3]; Day 44): 95.21%
- Daily release in percentage ([3]; Day 44): 0.2 percentage
- solubility in water [4]: very slightly soluble in water
